These results are taken from patent US20120237533A1, “Compositions and Methods for Inducing Apoptosis in Prostate Cancer Cells” (priority 2009, published 2012).

Assay [1] deals with Prostate cancer C42 cells. Briefly: Apoptosis assays: caspase-3 activity and time lapse video recording. The format is cell-based. Particulars: for concentration at which maximal caspase activation is achieved: comparison of PI3K inhibitors. As to the method: FIG. 6. […] Prostate cancer C42 cells were treated with 10 nM of TGFα-pseudomonas exotoxin chimera (PE) and 500 nM PI3K inhibitor ZSTK474 (ZSTK) or PI3K inhibitor LY294002 (LY) individually and in combination. A) Caspase activity was measured 3 h and 6 h after treatments began; B) Time lapse video-recording of C42 cells treated with 10 nM PE or combination of 10 nM PE and 500 nM ZSTK474. Representative images taken 2, 5, and 14 h after treatments began; C) Caspase activity measured 6 h after cells were treated with increasing concentrations of PE and 25 mcM of LY294002 (LY).
Western blotting—Tumors were excised, homogenized on ice in lysis buffer [10% glycerol, 50 mM PIPES-KOH (pH 7.4), 5 mM EDTA, 1% NP40, 1 mM DTT, protease and phosphatase inhibitors;] centrifuged 10 min 14,000 G to precipitate unsoluble fraction. Soluble fraction was resolved by SDS-PAGE followed by Western blotting on nitrocellulose. Nitrocellulose membranes were probed with antibodies to Akt and phospho-Akt according to manufacturer's instructions; the appropriate secondary antibodies were then applied and positive signals detected by enhanced chemiluminescence. Immunofluorescence—Cells were plated on glass coverslips in 6-well plates and treated and fixed with 10% formalin in PBS (pH 7.4) for 15 min. The cells were then blocked in 2.5% goat serum in PBS-T for 30 min at 37° C. Blocking solution was used to prepare a 1:300 mixture of mouse-J591 anti-PSMA antibodies subsequent procedures were done at room temperature. Incubation with primary antibodies was continued for 3 h. The cells were then washed three times with PBS-T and incubated with a mixture of goat antimouse antibodies conjugated with fluorescein, diluted in blocking solution at a ratio of 1:300 each. One h later, cells were washed with PBS-T, stained with DAPI, and mounted on glass microscope slides. Image analysis was done on a Nikon microscope equipped with a digital camera and software from Inovision (Durham, N.C.). Tumor Implantations—Nude mice (BALB/cAnNCrj-nu from Charles River) received four subcutaneous injections or two intratibial injections of 2×10^6 cells with Matrigel. Injections were made using an insulin syringe and a 27 gauge needle. All manipulations with animals were conducted in humane manner, in strict adherence with a protocol approved by institutional ACUC, which was designed to minimize animal suffering. Luminescence Imaging—Tumor growth was analyzed with a Xenogen IVIS® 100 optical imaging system (Caliper Life Sciences, Hopkinton, Mass.). Animals were immobilized for substrate injection and imaging through an attached gas anesthesia system consisting of 2% isoflurane/O2. To account for background and nonspecific luminescence, mice were imaged before injection of […]. Animals were injected with 100 μl of the firefly luciferase substrate luciferin (3.5 mg/ml in PBS) and imaged 15 minutes later in prone and supine positions (5 minutes each). Whole-body images were obtained using the Living Image® software provided with imaging system. A gray-scale photographic image and the bioluminescent color image are superimposed to provide anatomic registration of the light signal. A region of interest (ROI) was manually selected over the luminescent signal, and the intensity was recorded as photons/second within an ROI. Apoptosis Assays—Apoptosis in whole cell populations was quantified by measuring caspase-3 activity with the fluorogenic substrate Ac-DEVD-7-amido-4-trifluoromethyl-coumarin (Bachem) as specified by the manufacturer. For these experiments, attached and floating cells were collected and lysed in caspase lysis buffer (1% Nonidet P-40, 150 mM NaCl, 20 mM HEPES, 1 mM EDTA, 1 mM dithiothreitol, and 5 μg/ml aprotinin, leupeptin, and pepstatin). Fluorescence was recorded each 15 min for 1 h, and caspase activity was expressed in arbitrary units. […]

The test system of assay [2] is subcutaneous xenograft tumors. In words: Luminescence imaging of subcutaneous xenograft tumors injected with LY294002. Particulars: injections into subcutaneous xenograft tumors, versus DMSO. It is filed as in vivo, mice. From the text: (§1) FIG. 4A) Representative luminescent images (superimposed on black and white images) of mice injected with solvent (DMSO) or LY294002. Injection site is indicated by arrow. FIG. 4B) Changes in luminescence of subcutaneous xenograft tumors injected with LY294002 or DMSO (error bars show standard deviations between 3 tumors injected with each agent). FIG. 4C) Tissue sections of xenograft tumors. Arrowheads point at apoptotic cells. FIG. 4D) Inhibition of Akt phosphorylation in xenografts injected with LY294002. Western blotting of tumor lysates.
(§2) Western blotting—Tumors were excised, homogenized on ice in lysis buffer [10% glycerol, 50 mM PIPES-KOH (pH 7.4), 5 mM EDTA, 1% NP40, 1 mM DTT, protease and phosphatase inhibitors;] centrifuged 10 min 14,000 G to precipitate unsoluble fraction. […] Nitrocellulose membranes were probed with antibodies to Akt and phospho-Akt according to manufacturer's instructions; the appropriate secondary antibodies were then applied and positive signals detected by enhanced chemiluminescence. […] Luminescence Imaging—Tumor growth was analyzed with a Xenogen IVIS® 100 optical imaging system (Caliper Life Sciences, Hopkinton, Mass.). […] To account for background and nonspecific luminescence, mice were imaged before injection of luciferase. […] Fluorescence was recorded each 15 min for 1 h, and caspase activity was expressed in arbitrary units. […]

For assay [3], the system named is PI3K. In words: Western blotting of tumor lysates for Akt phosphorylation. The settings on record: xenografts injected with LY294002. The format is in vivo, mice.
Source text: as §1, §2
Background: In western blotting, separated proteins are transferred to a membrane and probed.

The subject of assay [4] is PI3K. Particulars: J. Natl. Can. Inst. 2006, 98, 545-556; cited from earlier work.

Structures are written as SMILES.

As for `Cn1c(=O)n(-c2ccc(C(C)(C)C#N)cc2)c2c3cc(-c4cnc5ccccc5c4)ccc3ncc21` [BEZ235], the “concentration at which maximal caspase activation is achieved” value (from here on “concentration”) in assay [1] turned out to be 5 µM.
Regarding `O=c1cc(N2CCOCC2)oc2c(-c3ccccc3)cccc12` [LY294002], the “tumor growth (luminescence of xenograft tumors)” value in assay [2] is “inhibit”. Moreover, the induction of apoptosis entry in assay [1] (25 μM LY294002 in combination with 10 nM of TGFαPE40 fusion) was “maximal induction of apoptosis”. Also, the “induction of apoptosis (caspase activity)” value in assay [1] (C42 cells, 25 mcM LY294002 with increasing concentrations of PE, 6 h) was “synergistic induction of apoptosis”. Moreover, in assay [1], the “concentration” value was found to be 25 µM. In addition, the “PI3K activity (Akt phosphorylation in xenografts)” value in assay [3] is given as “inhibit PI3K activity”.
On to `FC(F)c1nc2ccccc2n1-c1nc(N2CCOCC2)nc(N2CCOCC2)n1` [ZSTK474], for which, in assay [4], the “PI3K inhibition relative to LY294002” value was “more efficiently than LY294002”. The induction of apoptosis entry in assay [1] (0.5 μM of ZSTK474 in combination with 10 nM of TGFαPE40 fusion) is “maximal induction of apoptosis”. For the same compound, the “induction of apoptosis (caspase activity, time lapse video)” value in assay [1] (C42 cells, 500 nM ZSTK474 with 10 nM TGFα-pseudomonas exotoxin chimera (PE), 3 h and 6 h) is recorded as “synergistic induction of apoptosis”. The “concentration” value in assay [1] was 0.5 µM.
